In EP0984975B1, “MULTICYCLIC ERYTHROMYCIN DERIVATIVES” (Abbott Laboratories, priority 1997, dated 1998) one finds Antibacterial Activity (MIC's) data, which are given here for two compounds.

SMILES strings stand for the structures.

Assay in all cases: In vitro assay of antibacterial activity (agar dilution MIC)
Holding throughout (type): cell-based

One assay has as its system STR[…] 508. As to conditions: STREPTOCOCCUS AGALACTIAE CMX 508; BHI agar, 35-37 °C for 20 to 24 hours; unit assumed. The procedure:
(§1) Representative compounds of the present invention were assayed in vitro for antibacterial activity as follows: Twelve petri dishes containing successive aqueous dilutions of the test compound mixed with 10 mL of sterilized Brain Heart Infusion (BHI) agar (Difco 0418-01-5) were prepared. Each plate was inoculated with 1:100 (or 1:10 for slow-growing strains, such as Micrococcus and Streptococcus) dilutions of up to 32 different microorganisms, using a Steers replicator block. The inoculated plates were incubated at 35-37 °C for 20 to 24 hours. In addition, a control plate, using BHI agar containing no test compound, was prepared and incubated at the beginning and end of each test.
(§2) An additional plate containing a compound having known susceptibility patterns for the organisms being tested and belonging to the same antibiotic class as the test compound was also prepared and incubated as a further control, as well as to provide test-to-test comparability. Erythromycin A was used for this purpose.
(§3) After incubation, each plate was visually inspected. The minimum inhibitory concentration (MIC) was defined as the lowest concentration of drug yielding no growth, a slight haze, or sparsely isolated colonies on the inoculum spot as compared to the growth control.

A further assay relates to CANDIDA ALBICANS CCH 442. The settings on record: BHI agar, 35-37 °C for 20 to 24 hours, unit assumed. Here is the method:
as §1, §2, §3

For assay [1], the system named is STREPTOCOCCUS PYOGENES 930. As to conditions: STREPTOCOCCUS PYOGENES 930; BHI agar, 35-37 °C for 20 to 24 hours; unit assumed. The procedure:
as §1, §2, §3

In assay [2] the test system is STAPHYLOCOCCUS AUREUS CMX 642A. As to conditions: BHI agar, 35-37 °C for 20 to 24 hours, unit assumed. Here is the method: as §1, §2, §3
The subject of another assay is ESCHERICHIA COLI DC-2. As to conditions: BHI agar, 35-37 °C for 20 to 24 hours, unit assumed. The procedure:
as §1, §2, §3

Assay [3] relates to STAPHYLOCOCCUS AUREUS ATCC 6538P. The settings on record: BHI agar, 35-37 °C for 20 to 24 hours, unit assumed. Here is the method:
as §1, §2, §3

Assay [4] relates to STREPTOCOCCUS PYOGENES PIU 2548. As to conditions: STREPTOCOCCUS PYOGENES PIU 2548; BHI agar, 35-37 °C for 20 to 24 hours; unit assumed. Here is the method: as §1, §2, §3
In assay [5] the test system is STAPHYLOCOCCUS AUREUS NCTC10649M. The settings on record: BHI agar, 35-37 °C for 20 to 24 hours, unit assumed. The procedure:
as §1, §2, §3

The test system of assay [6] is MYCOBACTERIUM SMEGMATIS ATCC 114. As to conditions: MYCOBACTERIUM SMEGMATIS ATCC 114; BHI agar, 35-37 °C for 20 to 24 hours; unit assumed. Here is the method:
as §1, §2, §3

The subject of the next assay is EN[…] ATCC 8043. The settings on record: ENTEROCOCCUS FAECIUM ATCC 8043; BHI agar, 35-37 °C for 20 to 24 hours; unit assumed. The procedure:
as §1, §2, §3

Assay [7] relates to STAPHYLOCOCCUS AUREUS 1775. The settings on record: BHI agar, 35-37 °C for 20 to 24 hours, unit assumed. The procedure:
as §1, §2, §3

The next assay relates to ESCHERICHIA COLI JUHL. The settings on record: ESCHERICHIA COLI JUHL; BHI agar, 35-37 °C for 20 to 24 hours; unit assumed. The procedure: as §1, §2, §3
In assay [8] the test system is STAPHYLOCOCCUS AUREUS A5177. As to conditions: BHI agar, 35-37 °C for 20 to 24 hours, unit assumed. The procedure: as §1, §2, §3
The next assay deals with M[…] ATCC 9341. The settings on record: MICROCOCCUS LUTEUS ATCC 9341; BHI agar, 35-37 °C for 20 to 24 hours; unit assumed. The procedure: as §1, §2, §3
Another assay has as its system M[…] ATCC 4698. The settings on record: MICROCOCCUS LUTEUS ATCC 4698; BHI agar, 35-37 °C for 20 to 24 hours; unit assumed. The procedure:
as §1, §2, §3

Assay [9] deals with STREPTOCOCCUS PYOGENES EES61. The settings on record: STREPTOCOCCUS PYOGENES EES61; BHI agar, 35-37 °C for 20 to 24 hours; unit assumed. Here is the method: as §1, §2, §3
For assay [10], the system named is STREPTOCOCCUS BOVIS A-5169. The settings on record: STREPTOCOCCUS BOVIS A-5169; BHI agar, 35-37 °C for 20 to 24 hours; unit assumed. Here is the method:
as §1, §2, §3

Assay [11] deals with STAPHYLOCOCCUS EPIDERMIDIS 3519. The settings on record: STAPHYLOCOCCUS EPIDERMIDIS 3519; BHI agar, 35-37 °C for 20 to 24 hours; unit assumed. The procedure: as §1, §2, §3
Assay [12] concerns STAPHYLOCOCCUS AUREUS A-5278. The settings on record: BHI agar, 35-37 °C for 20 to 24 hours, unit assumed. Here is the method: as §1, §2, §3
For the next assay, the system named is ESCHERICHIA COLI SS. As to conditions: ESCHERICHIA COLI SS; BHI agar, 35-37 °C for 20 to 24 hours; unit assumed. Here is the method: as §1, §2, §3
Assay [13] deals with STAPHYLOCOCCUS AUREUS CMX 553. As to conditions: BHI agar, 35-37 °C for 20 to 24 hours, unit assumed. The procedure: as §1, §2, §3
In a further assay the test system is N. ASTEROIDES ATCC 9970. As to conditions: BHI agar, 35-37 °C for 20 to 24 hours, unit assumed. The procedure: as §1, §2, §3

Regarding `CC[C@H]1OC(=O)[C@H](C)C(=O)[C@H](C)[C@@H](O[C@@H]2O[C@H](C)C[C@H](N(C)C)[C@H]2O)[C@](C)(OC)C[C@@H](C)C2=Nc3cccnc3N3C(=O)O[C@@]1(C)[C@H]3[C@H]2C` [Ex 7, Compound of Formula (II): R^1 is methoxy; R^2 is H, R^3 is absent, the double bond is present, B, D and E are H, and Y and Z taken together with the atom to which they are attached form an oxo group], the Antibacterial Activity (MIC's) in the assay on STR[…] 508 was 0.05 mg/L; with CANDIDA ALBICANS CCH 442 it was more than 100 mg/L; in [1] it was more than 100 mg/L; in assay [2] it was 0.39 mg/L; in the assay on ESCHERICHIA COLI DC-2, more than 100 mg/L; in assay [3], 0.39 mg/L. Also, the Antibacterial Activity (MIC's) in [4] is 0.39 mg/L; in [5], 0.39 mg/L; in [6], 3.1 mg/L; with EN[…] ATCC 8043, 0.1 mg/L; in assay [7], more than 100 mg/L; with ESCHERICHIA COLI JUHL it was more than 100 mg/L. In addition, the Antibacterial Activity (MIC's) was 0.39 mg/L in assay [8]; 0.05 mg/L in the assay on M[…] ATCC 9341; 0.39 mg/L in the assay on M[…] ATCC 4698; 0.05 mg/L in assay [9]; 0.05 mg/L in assay [10]; 0.39 mg/L in [11]. The Antibacterial Activity (MIC's) was more than 100 mg/L in assay [12], 0.78 mg/L in the assay with ESCHERICHIA COLI SS, 0.39 mg/L in assay [13] and 0.1 mg/L with N. ASTEROIDES ATCC 9970.

As for `C=CCO[C@]1(C)C[C@@H](C)C2=Nc3ccccc3N3C(=O)O[C@](C)([C@@H](CC)OC(=O)[C@H](C)C(=O)[C@H](C)[C@H]1O[C@@H]1O[C@H](C)C[C@H](N(C)C)[C@H]1O)[C@H]3[C@H]2C` [Ex 8, Compound of Formula (I): R^1 is allyloxy; R^2 is H, R^3 is absent, the double bond is present, A, B, D and E are H, and Y and Z taken together with the atom to which they are attached form an oxo group], the Antibacterial Activity (MIC's) with STR[…] 508 was 0.39 mg/L; with CANDIDA ALBICANS CCH 442, more than 100 mg/L; in assay [1], more than 100 mg/L; in assay [2], 0.78 mg/L; with ESCHERICHIA COLI DC-2 it was more than 100 mg/L; in [3], 0.78 mg/L. For the same compound, the Antibacterial Activity (MIC's) in [4] is 0.78 mg/L; in [5] it was 0.78 mg/L; in [6], 6.2 mg/L; with EN[…] ATCC 8043 it was 0.78 mg/L; in [7], more than 100 mg/L; in the assay with ESCHERICHIA COLI JUHL, more than 100 mg/L. In addition, the Antibacterial Activity (MIC's) came out at 0.78 mg/L in assay [8]; 0.78 mg/L in the assay with M[…] ATCC 9341; 1.56 mg/L in the assay with M[…] ATCC 4698; 0.39 mg/L in assay [9]; 0.1 mg/L in assay [10]; 1.56 mg/L in assay [11]. Further, the Antibacterial Activity (MIC's) was more than 100 mg/L in [12], 12.5 mg/L in the assay with ESCHERICHIA COLI SS, 0.78 mg/L in assay [13] and 3.1 mg/L in the assay with N. ASTEROIDES ATCC 9970.
